Starred links: 1 amine or outer side, 2 acyl side, 3 side chain; linkers in the order of their positions; H or OH if unused. Non-standard residues stand in square brackets, D forms with d. Residues, ends and D or L forms follow the SMILES beside them. Groups on a side chain read outwards from the residue. No end group written: not given here. *: point of attachment. γGlu = O=C(O)[C@H](CCC(=O)[*:2])N[*:1]; Palmitoyl = CCCCCCCCCCCCCCCC(=O)*; Aib = CC(C)(N)C(=O)O

Experiment [1] has as its target T1, GLP-1 receptor (Homo sapiens, UniProt P43220).
T1 construct: expressed in transfected cells; host or cells: HEK293
Put plainly: cAMP induction, firefly luciferase reporter assay, GLP-1 receptor. It is filed as cell-based. The note with it: for Activity at GLP-1 Receptor % Relative Activity: compared to native GLP-1. On the procedure:
(§1) The ability of each peptide to induce cAMP was measured in a firefly luciferase-based reporter assay.
(§2) At the end of the incubation, 100 μL of LucLite luminescence substrate reagent (Perkin Elmer, Wellesley, Mass.) were added to each well. The plate was shaken briefly, incubated 10 min in the dark and light output was measured on MicroBeta-1450 liquid scintillation counter (Perkin-Elmer, Wellesley, Mass.).
A general note: In a reporter assay the amount or activity of a reporter protein is the signal.

The target in experiment [2] is T2, glucagon receptor (Homo sapiens, UniProt P47871).
T2 construct: expressed in transfected cells; host or cells: HEK293
T2 sequence (P47871 26-477): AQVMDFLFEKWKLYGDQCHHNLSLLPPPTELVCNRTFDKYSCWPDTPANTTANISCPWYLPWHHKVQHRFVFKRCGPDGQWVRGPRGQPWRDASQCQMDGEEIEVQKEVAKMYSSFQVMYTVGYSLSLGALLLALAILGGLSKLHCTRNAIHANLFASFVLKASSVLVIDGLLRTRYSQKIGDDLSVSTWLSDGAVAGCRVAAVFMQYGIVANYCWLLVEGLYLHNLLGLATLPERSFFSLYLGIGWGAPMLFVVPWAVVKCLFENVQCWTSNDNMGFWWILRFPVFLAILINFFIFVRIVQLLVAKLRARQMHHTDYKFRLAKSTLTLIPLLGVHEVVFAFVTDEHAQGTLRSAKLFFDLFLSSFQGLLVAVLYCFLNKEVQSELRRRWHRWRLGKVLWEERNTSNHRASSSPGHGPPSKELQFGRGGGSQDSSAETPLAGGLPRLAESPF
The experiment is described as follows: cAMP induction, firefly luciferase reporter assay, glucagon receptor. It is filed as cell-based. The note with it: for Activity at Glucagon Receptor % Relative Activity: compared to native glucagon. On the procedure:
as §1, §2

[3] abbreviates: Activity at GLP-1 Receptor EC50 [pM], Table 3A.

T1 sequence (P43220 24-463): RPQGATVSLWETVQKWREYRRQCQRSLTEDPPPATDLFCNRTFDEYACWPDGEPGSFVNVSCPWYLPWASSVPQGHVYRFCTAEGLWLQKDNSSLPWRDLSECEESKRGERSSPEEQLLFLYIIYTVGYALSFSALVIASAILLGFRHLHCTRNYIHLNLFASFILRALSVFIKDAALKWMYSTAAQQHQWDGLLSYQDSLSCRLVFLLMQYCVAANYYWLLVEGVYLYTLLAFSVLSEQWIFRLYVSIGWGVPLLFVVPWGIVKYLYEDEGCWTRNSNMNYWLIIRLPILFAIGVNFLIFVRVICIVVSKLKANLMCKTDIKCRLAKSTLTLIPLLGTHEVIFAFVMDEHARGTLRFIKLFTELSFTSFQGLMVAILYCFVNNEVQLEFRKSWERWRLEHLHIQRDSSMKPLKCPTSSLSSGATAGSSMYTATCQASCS

`CCCCCCCCCCCCCCCC(=O)N[C@@H](CCC(=O)NCCCC[C@H](NC(=O)[C@H](CC(=O)O)NC(=O)[C@H](CO)NC(=O)[C@@H](NC(=O)[C@H](Cc1ccccc1)NC(=O)[C@@H](NC(=O)CNC(=O)[C@H](CCC(N)=O)NC(=O)C(C)(C)NC(=O)[C@@H](N)Cc1c[nH]cn1)[C@@H](C)O)[C@@H](C)O)C(=O)N[C@@H](CO)C(=O)N[C@@H](CCCCN)C(=O)N[C@@H](Cc1ccc(O)cc1)C(=O)N[C@@H](CC(C)C)C(=O)N[C@@H](CC(=O)O)C(=O)N[C@@H](CCC(=O)O)C(=O)N[C@@H](CCCNC(=N)N)C(=O)N[C@@H](C)C(=O)N[C@@H](C)C(=O)N[C@@H](CCC(N)=O)C(=O)N[C@@H](CC(=O)O)C(=O)N[C@@H](Cc1ccccc1)C(=O)N[C@H](C(=O)N[C@@H](CS)C(=O)N[C@@H](Cc1c[nH]c2ccccc12)C(=O)N[C@@H](CC(C)C)C(=O)N[C@@H](CC(C)C)C(=O)N[C@@H](CC(=O)O)C(=O)N[C@H](C(N)=O)[C@@H](C)O)C(C)C)C(=O)O` [compound 58] gave an EC50 in experiment [1] (Activity at GLP-1 Receptor EC50 [nM], Table 6) of 0.068 nM. Further, in experiment [1] (Table 6), the “Activity at GLP-1 Receptor % Relative Activity” value is 125%. The “Activity at Glucagon Receptor % Relative Activity” value in experiment [2] (Table 6) worked out at 80%.
Regarding `CCCCCCCCCCCCCCCC(=O)N[C@@H](CCC(=O)N[C@@H](CCC(=O)NCCCC[C@H](NC(=O)[C@H](CC(=O)O)NC(=O)[C@H](CO)NC(=O)[C@@H](NC(=O)[C@H](Cc1ccccc1)NC(=O)[C@@H](NC(=O)CNC(=O)[C@H](CCC(=O)O)NC(=O)C(C)(C)NC(=O)[C@@H](N)Cc1c[nH]cn1)[C@@H](C)O)[C@@H](C)O)C(=O)N[C@@H](CO)C(=O)N[C@@H](CCCCN)C(=O)N[C@@H](Cc1ccc(O)cc1)C(=O)N[C@@H](CC(C)C)C(=O)N[C@@H](CC(=O)O)C(=O)NC(C)(C)C(=O)N[C@@H](CCCNC(=N)N)C(=O)N[C@@H](C)C(=O)N[C@@H](C)C(=O)N[C@@H](CCC(N)=O)C(=O)N[C@@H](CC(=O)O)C(=O)N[C@@H](Cc1ccccc1)C(=O)N[C@H](C(=O)N[C@@H](CCC(N)=O)C(=O)N[C@@H](Cc1c[nH]c2ccccc12)C(=O)N[C@@H](CC(C)C)C(=O)N[C@@H](CCSC)C(=O)N[C@@H](CC(=O)O)C(=O)N[C@H](C(N)=O)[C@@H](C)O)C(C)C)C(=O)O)C(=O)O` [compound 45] (H-H[Aib]EGTFTSDK([γGlu-γGlu-Palmitoyl])SKYLD[Aib]RAAQDFVQWLMDT-NH2; N-terminus assumed), in experiment [1] (setting [3]), the concentration for a half-maximal effect (EC50) is 0.003 nM. Moreover, in experiment [1] (Table 3A), the “Activity at GLP-1 Receptor % Relative Activity” value is listed as 759%. Besides, the “Activity at Glucagon Receptor % Relative Activity” value in experiment [2] (Table 3A) was 75%.
Consider `CCCCCCCCCCCCCCCC(=O)N[C@@H](CCC(=O)N[C@@H](CCC(=O)NCCCC[C@H](NC(=O)[C@H](CC(=O)O)NC(=O)[C@H](CO)NC(=O)[C@@H](NC(=O)[C@H](Cc1ccccc1)NC(=O)[C@@H](NC(=O)CNC(=O)[C@H](CCC(N)=O)NC(=O)C(C)(C)NC(=O)[C@@H](N)Cc1c[nH]cn1)[C@@H](C)O)[C@@H](C)O)C(=O)N[C@@H](CO)C(=O)N[C@@H](CCCCN)C(=O)N[C@@H](Cc1ccc(O)cc1)C(=O)N[C@@H](CC(C)C)C(=O)N[C@@H](CCC(=O)O)C(=O)NC(C)(C)C(=O)N[C@@H](CCCNC(=N)N)C(=O)N[C@@H](C)C(=O)N[C@@H](C)C(=O)N[C@@H](CCC(N)=O)C(=O)N[C@@H](CC(=O)O)C(=O)N[C@@H](Cc1ccccc1)C(=O)N[C@H](C(=O)N[C@@H](CCC(N)=O)C(=O)N[C@@H](Cc1c[nH]c2ccccc12)C(=O)N[C@@H](CC(C)C)C(=O)N[C@@H](CCSC)C(=O)N[C@@H](CC(=O)O)C(=O)N[C@H](C(N)=O)[C@@H](C)O)C(C)C)C(=O)O)C(=O)O` [compound 48] (H-H[Aib]QGTFTSDK([γGlu-γGlu-Palmitoyl])SKYLE[Aib]RAAQDFVQWLMDT-NH2; N-terminus assumed), for which the concentration giving a half-maximal response (EC50) in experiment [1] (setting [3]) stood at 0.006 nM; in experiment [2] (Activity at Glucagon Receptor EC50 [pM], Table 3A), 3 pM. Further, in experiment [1] (Table 3A), the “Activity at GLP-1 Receptor % Relative Activity” value is 384%. Besides, in experiment [2] (Table 3A), the “Activity at Glucagon Receptor % Relative Activity” value was 1194%.
Consider `CCCCCCCCCCCCCCCC(=O)N[C@@H](CCC(=O)NCCCC[C@H](NC(=O)[C@H](CC(=O)O)NC(=O)[C@H](CO)NC(=O)[C@@H](NC(=O)[C@H](Cc1ccccc1)NC(=O)[C@@H](NC(=O)CNC(=O)[C@H](CCC(N)=O)NC(=O)[C@@H](CO)NC(=O)[C@@H](N)Cc1c[nH]cn1)[C@@H](C)O)[C@@H](C)O)C(=O)N[C@@H](CO)C(=O)N[C@@H](CCCCN)C(=O)N[C@@H](Cc1ccc(O)cc1)C(=O)N[C@@H](CC(C)C)C(=O)N[C@@H](CC(=O)O)C(=O)NC(C)(C)C(=O)N[C@@H](CCCCN)C(=O)N[C@@H](CCCNC(=N)N)C(=O)N[C@@H](C)C(=O)N[C@@H](CCCCN)C(=O)N[C@@H](CCC(=O)O)C(=O)N[C@@H](Cc1ccccc1)C(=O)N[C@H](C(=O)N[C@@H](CS)C(=O)N[C@@H](Cc1c[nH]c2ccccc12)C(=O)N[C@@H](CC(C)C)C(=O)N[C@@H](CC(C)C)C(=O)N[C@@H](CC(=O)O)C(=O)N[C@H](C(N)=O)[C@@H](C)O)C(C)C)C(=O)O` [compound 62] (H-H[dS]QGTFTSDK([γGlu-Palmitoyl])SKYLD[Aib]KRAKEFVCWLLDT-NH2; N-terminus assumed), for which the “Activity at GLP-1 Receptor % Relative Activity” value in experiment [1] (Table 2B) was determined as 246%. In addition, the “Activity at Glucagon Receptor % Relative Activity” value in experiment [2] (Table 2B) is 113%.
As to `CCCCCCCCCCCCCCCC(=O)N[C@@H](CCC(=O)NCCCC[C@H](NC(=O)[C@H](CC(=O)O)NC(=O)[C@H](CO)NC(=O)[C@@H](NC(=O)[C@H](Cc1ccccc1)NC(=O)[C@@H](NC(=O)CNC(=O)[C@H](CCC(N)=O)NC(=O)[C@@H](CO)NC(=O)[C@@H](N)Cc1c[nH]cn1)[C@@H](C)O)[C@@H](C)O)C(=O)N[C@@H](CO)C(=O)N[C@@H](CCCCN)C(=O)N[C@@H](Cc1ccc(O)cc1)C(=O)N[C@@H](CC(C)C)C(=O)N[C@@H](CC(=O)O)C(=O)N[C@@H](CCC(=O)O)C(=O)N[C@@H](CCC(N)=O)C(=O)N[C@@H](C)C(=O)N[C@@H](C)C(=O)N[C@@H](CCCCN)C(=O)N[C@@H](CCC(=O)O)C(=O)N[C@@H](Cc1ccccc1)C(=O)N[C@H](C(=O)N[C@@H](CS)C(=O)N[C@@H](Cc1c[nH]c2ccccc12)C(=O)N[C@@H](CC(C)C)C(=O)N[C@@H](CC(C)C)C(=O)N[C@@H](CC(=O)O)C(=O)N[C@H](C(=O)NCC(=O)O)[C@@H](C)O)[C@@H](C)CC)C(=O)O` [compound 55], in experiment [1] (Table 5), the “Activity at GLP-1 Receptor % Relative Activity” value is given as 16%. Further, in experiment [2] (Table 5), the “Activity at Glucagon Receptor % Relative Activity” value was 7%.
Take “HSQGTFTSDYSKYLDERRAKEFVQWLMNT-NH2 [compound 68]”: the “Activity at GLP-1 Receptor % Relative Activity” value in experiment [1] (Table 2B) turned out to be 44%. For the same compound, in experiment [2] (Table 2B), the “Activity at Glucagon Receptor % Relative Activity” value came out at 104%.
`CCCCCCCCCCCCCCCC(=O)N[C@@H](CCC(=O)NCCCC[C@H](NC(=O)[C@H](CC(=O)O)NC(=O)[C@H](CO)NC(=O)[C@@H](NC(=O)[C@H](Cc1ccccc1)NC(=O)[C@@H](NC(=O)CNC(=O)[C@H](CCC(N)=O)NC(=O)[C@@H](CO)NC(=O)[C@@H](N)Cc1c[nH]cn1)[C@@H](C)O)[C@@H](C)O)C(=O)N[C@@H](CO)C(=O)N[C@@H](CCCCN)C(=O)N[C@@H](Cc1ccc(O)cc1)C(=O)N[C@@H](CC(C)C)C(=O)N[C@@H](CC(=O)O)C(=O)N[C@@H](CCC(=O)O)C(=O)N[C@@H](CCC(N)=O)C(=O)N[C@@H](C)C(=O)N[C@@H](C)C(=O)N[C@@H](CCCCN)C(=O)N[C@@H](CCC(=O)O)C(=O)N[C@@H](Cc1ccccc1)C(=O)N[C@H](C(=O)N[C@@H](CS)C(=O)N[C@@H](Cc1c[nH]c2ccccc12)C(=O)N[C@@H](CC(C)C)C(=O)N[C@@H](CC(C)C)C(=O)N[C@@H](CC(=O)O)C(=O)N[C@@H](CCC(=O)O)C(N)=O)[C@@H](C)CC)C(=O)O` [compound 82] (H-H[dS]QGTFTSDK([γGlu-Palmitoyl])SKYLDEQAAKEFICWLLDE-NH2; N-terminus assumed) gave an EC50 in experiment [1] (Activity at GLP-1 Receptor EC50 [nM], Table 3C) of 0.02 nM. The “Activity at GLP-1 Receptor % Relative Activity” value in experiment [1] (Table 3C) came out at 345%. The “Activity at Glucagon Receptor % Relative Activity” value in experiment [2] (Table 3C) came out at 121%.
For the compound `CCCCCCCCCCCCCCCC(=O)N[C@@H](CCC(=O)NCCCC[C@H](NC(=O)[C@H](CC(=O)O)NC(=O)[C@H](CO)NC(=O)[C@@H](NC(=O)[C@H](Cc1ccccc1)NC(=O)[C@@H](NC(=O)CNC(=O)[C@H](CCC(N)=O)NC(=O)C(C)(C)NC(=O)[C@@H](N)Cc1c[nH]cn1)[C@@H](C)O)[C@@H](C)O)C(=O)N[C@@H](CO)C(=O)N[C@@H](CCCCN)C(=O)N[C@@H](Cc1ccc(O)cc1)C(=O)N[C@@H](CC(C)C)C(=O)N[C@@H](CC(=O)O)C(=O)NC(C)(C)C(=O)N[C@@H](CCCNC(=N)N)C(=O)N[C@@H](C)C(=O)N[C@@H](C)C(=O)N[C@@H](CCC(N)=O)C(=O)N[C@@H](CC(=O)O)C(=O)N[C@@H](Cc1ccccc1)C(=O)N[C@H](C(=O)N[C@@H](CCC(N)=O)C(=O)N[C@@H](Cc1c[nH]c2ccccc12)C(=O)N[C@@H](CC(C)C)C(=O)N[C@@H](CCSC)C(=O)N[C@@H](CC(=O)O)C(=O)N[C@H](C(N)=O)[C@@H](C)O)C(C)C)C(=O)O` [compound 43] (H-H[Aib]QGTFTSDK([γGlu-Palmitoyl])SKYLD[Aib]RAAQDFVQWLMDT-NH2; N-terminus assumed), the “Activity at GLP-1 Receptor % Relative Activity” value in experiment [1] (Table 3A) was 575%. Moreover, the “Activity at Glucagon Receptor % Relative Activity” value in experiment [2] (Table 3A) stood at 467%.

The EC50 is the concentration at which the effect is half-maximal.
